IC50 data for 15 compounds are collected here from patent US20240383915A1, “OXAZEPINE COMPOUNDS AND USES THEREOF IN THE TREATMENT OF CANCER” (Genentech, Inc., priority 2021, published 2024).

One may read the IC50 as the midpoint of a concentration-inhibition curve.

In one assay the test system is PC-9 cells. As to the kind of experiment: PC9 proliferation assay. The format is cell-based, human. As to conditions: Homo sapiens, PC-9, PC9; read-out: PC9 Prolif IC50 (G12V).
In the next assay the target is KRas (Homo sapiens (Human), UniProt P01116). Description: KRas GDP HTRF (BODIPY-GDP exchange TR-FRET). It counts as biochemical. Summed up:
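Inhibition of SOS1-mediated exchange of BODIPY-GDP on KRAS G12D, started with 3 nM recombinant human SOS1 and 300 nM BODIPY-GDP and read after 60 min. TR-FRET excitation 337 nm, ratio 520/490 nm ×10,000. IC50 from 4-parameter Hill fit of normalized data.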

Another assay deals with SW480 cells. Description: SW480 proliferation assay. It counts as cell-based. To be noted: Homo sapiens, SW480, SW480; read-out: SW480 Prolif IC50 (G12V).
The target in the next assay is KRas(G12V) (Homo sapiens (Human), UniProt P01116, G12V). Description: KRas(G12V) GDP HTRF (BODIPY-GDP exchange TR-FRET). The format is biochemical. (Time-resolved FRET reads energy transfer from a long-lived donor to a nearby acceptor.)
KRas(G12V), sequence (P01116-2 other isoform, or with tags, fused parts or gaps G12V): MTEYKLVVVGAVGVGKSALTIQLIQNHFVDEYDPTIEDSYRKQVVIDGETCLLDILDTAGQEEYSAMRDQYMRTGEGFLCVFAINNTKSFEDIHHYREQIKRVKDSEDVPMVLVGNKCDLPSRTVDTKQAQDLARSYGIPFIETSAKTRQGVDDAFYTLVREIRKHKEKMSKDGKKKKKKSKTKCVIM

SMILES strings stand for the structures.

KRas, sequence (P01116-2 other isoform, or with tags, fused parts or gaps): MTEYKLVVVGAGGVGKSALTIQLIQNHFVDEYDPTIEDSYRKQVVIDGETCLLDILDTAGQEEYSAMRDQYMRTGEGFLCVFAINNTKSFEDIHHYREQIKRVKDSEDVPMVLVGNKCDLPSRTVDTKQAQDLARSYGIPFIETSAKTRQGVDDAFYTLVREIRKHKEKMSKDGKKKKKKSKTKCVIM

As to `Cc1cc(N)nc(-c2c(Cl)c3c4c(nc(OCC56CCC(CC5)OC6)nc4c2F)N([C@H](C)c2cccnc2N)CCO3)c1C(F)(F)F` [Example 157, 6-((R)-2-((2-oxabicyclo[2.2.2]octan-4-yl)methoxy)-4-((R)-1-(2-aminopyridin-3-yl)ethyl)-8-chloro-10-fluoro-5,6-dihydro-4H-[1,4]oxazepino[5,6,7-de]quinazolin-9-yl)-4-methyl-5-(trifluoromethyl)pyridin-2-amine], the IC50 was determined as 8200 nM with PC-9 cells, 3.2 nM against KRas, 400 nM in the assay on SW480 cells and 0.81 nM against KRas(G12V).
On the same counts, the results for `Cc1cc(N)nc(-c2c(Cl)c3c4c(nc(OCC5(C)CCOCC5)nc4c2F)N([C@H](C)c2cccnc2N)CCO3)c1C(F)(F)F` (atropisomer, axis not shown) [Example 144, 6-((R)-4-((R)-1-(2-aminopyridin-3-yl)ethyl)-8-chloro-10-fluoro-2-((4-methyltetrahydro-2H-pyran-4-yl)methoxy)-5,6-dihydro-4H-[1,4]oxazepino[5,6,7-de]quinazolin-9-yl)-4-methyl-5-(trifluoromethyl)pyridin-2-amine] are 6000 nM, 4.4 nM, 520 nM and 1.4 nM.
As for `C=C1CN2CCC[C@@]2(COc2nc3c4c(c(Cl)c(-c5nc(N)cc(C)c5C(F)(F)F)c(F)c4n2)OCCN3C)C1` [Example 40], the IC50 with PC-9 cells came out at 2100 nM; at KRas, 4.6 nM; with SW480 cells it was 1200 nM; on KRas(G12V), 0.99 nM.
On the same counts, the results for `Cc1cc(N)nc(-c2cc3ncnc4c3c(c2Cl)OCCN4Cc2cncnc2N)c1C(F)(F)F` [Example 26, 5-((9-(6-amino-4-methyl-3-(trifluoromethyl)pyridin-2-yl)-8-chloro-5,6-dihydro-4H-[1,4]oxazepino[5,6,7-de]quinazolin-4-yl)methyl)pyrimidin-4-amine] are 16000 nM, 330 nM, 9700 nM and 53 nM.
`Cc1cc(N)nc(-c2c(Cl)c3c4c(nc(OC[C@@]56CCCN5C[C@]5(CC5(F)F)C6)nc4c2F)N([C@H](C)c2cccnc2N)CCO3)c1C(F)(F)F` (atropisomer, axis not shown) [Example 111a, 6-((R)-4-((R)-1-(2-aminopyridin-3-yl)ethyl)-8-chloro-2-(((1R,7a′S)-2,2-difluorodihydro-1′H,3′H-spiro[cyclopropane-1,2′-pyrrolizin]-7a′(5′H)-yl)methoxy)-10-fluoro-5,6-dihydro-4H-[1,4]oxazepino[5,6,7-de]quinazolin-9-yl)-4-methyl-5-(trifluoromethyl)pyridin-2-amine]: the IC50 in the assay with PC-9 cells amounted to 7400 nM; on KRas it was 0.85 nM; in the assay with SW480 cells it was 1.8 nM; against KRas(G12V), 0.36 nM.
Take `Cc1cc(N)nc(-c2cc3ncnc4c3c(c2Cl)OCCN4[C@H](C)c2cncc(N)c2)c1C(F)(F)F` [Example 17, (R)-6-(4-(1-(5-aminopyridin-3-yl)ethyl)-8-chloro-5,6-dihydro-4H-[1,4]oxazepino[5,6,7-de]quinazolin-9-yl)-4-methyl-5-(trifluoromethyl)pyridin-2-amine]: the IC50 is 17000 nM in the assay on PC-9 cells, 52 nM against KRas, 8700 nM in the assay with SW480 cells and 6.1 nM at KRas(G12V).
The matching figures for `C=C1CN2CCC[C@@]2(COc2nc3c4c(c(Cl)c(-c5cc(O)cc6ccccc56)cc4n2)OCCN3C)C1` [Example 59, (S)-4-(8-chloro-4-methyl-2-((2-methylenetetrahydro-1H-pyrrolizin-7a(5H)-yl)methoxy)-5,6-dihydro-4H-[1,4]oxazepino[5,6,7-de]quinazolin-9-yl)naphthalen-2-ol]: 5800 nM, 270 nM, 7100 nM and 57 nM.
Turning to `Cc1cc(N)nc(-c2c(Cl)c3c4c(nc(N5CC6(COCCN6)C5)nc4c2F)N([C@H](C)c2cccnc2N)CCO3)c1C(F)(F)F` (atropisomer, axis not shown) [Example 90, 6-((R)-4-((R)-1-(2-aminopyridin-3-yl)ethyl)-8-chloro-10-fluoro-2-(8-oxa-2,5-diazaspiro[3.5]nonan-2-yl)-5,6-dihydro-4H-[1,4]oxazepino[5,6,7-de]quinazolin-9-yl)-4-methyl-5-(trifluoromethyl)pyridin-2-amine], the IC50 with PC-9 cells was 6400 nM; against KRas it was 0.99 nM; with SW480 cells, 390 nM; against KRas(G12V) it was 0.22 nM.
The matching figures for `Cc1cc(N)nc(-c2c(Cl)c3c4c(nc(OC[C@@]56CCCN5C[C@H](F)C6)nc4c2F)N([C@H](C)c2cncnc2N)CCO3)c1C(F)(F)F` (atropisomer, axis not shown; (aS)) [Example 81, 5-((R)-1-((R)-9-(6-amino-4-methyl-3-(trifluoromethyl)pyridin-2-yl)-8-chloro-10-fluoro-2-(((2R,7aS)-2-fluorotetrahydro-1H-pyrrolizin-7a(5H)-yl)methoxy)-5,6-dihydro-4H-[1,4]oxazepino[5,6,7-de]quinazolin-4-yl)ethyl)pyrimidin-4-amine]: 7800 nM, 0.0659 nM, 6.1 nM and 0.067 nM.
As to `Cc1cc(N)nc(-c2c(Cl)c3c4c(nc(OC[C@@]5(C)CC(F)(F)CN5C)nc4c2F)N([C@H](C)c2cccnc2N)CCO3)c1C(F)(F)F` (atropisomer, axis not shown) [Example 122b, 6-((R)-4-((R)-1-(2-aminopyridin-3-yl)ethyl)-8-chloro-2-(((R)-4,4-difluoro-1,2-dimethylpyrrolidin-2-yl)methoxy)-10-fluoro-5,6-dihydro-4H-[1,4]oxazepino[5,6,7-de]quinazolin-9-yl)-4-methyl-5-(trifluoromethyl)pyridin-2-amine], the IC50 with PC-9 cells came to 9400 nM; against KRas it was 0.202 nM; in the assay on SW480 cells, 17 nM; at KRas(G12V) it was 0.095 nM.
`Cc1cc(N)nc(-c2c(Cl)c3c4c(nc(OC[C@H]5C[C@H](O)C5)nc4c2F)N([C@H](C)c2cccnc2N)CCO3)c1C(F)(F)F` (atropisomer, axis not shown) [Example 145, (1R,3r)-3-((((R)-9-(6-amino-4-methyl-3-(trifluoromethyl)pyridin-2-yl)-4-((R)-1-(2-aminopyridin-3-yl)ethyl)-8-chloro-10-fluoro-5,6-dihydro-4H-[1,4]oxazepino[5,6,7-de]quinazolin-2-yl)oxy)methyl)cyclobutan-1-ol]: the IC50 in the assay with PC-9 cells was found to be 20000 nM; at KRas, 1.2 nM; in the assay with SW480 cells, 450 nM; at KRas(G12V), 0.56 nM.
The matching figures for `Cc1cc(N)nc(-c2cc3nc(OC[C@@H]4C[C@@H](F)CN4C)nc4c3c(c2Cl)OCCN4Cc2cccnc2N)c1C(F)(F)F` [Example 49, 6-(4-((2-aminopyridin-3-yl)methyl)-8-chloro-2-(((2S,4R)-4-fluoro-1-methylpyrrolidin-2-yl)methoxy)-5,6-dihydro-4H-[1,4]oxazepino[5,6,7-de]quinazolin-9-yl)-4-methyl-5-(trifluoromethyl)pyridin-2-amine]: 3800 nM, 3.8 nM, 1100 nM and 0.57 nM.
On the same counts, the results for `Cc1cc(N)nc(-c2c(Cl)c3c4c(nc(OC[C@@H]5CCCN5C5COC5)nc4c2F)N([C@H](C)c2cccnc2N)CCO3)c1C(F)(F)F` (atropisomer, axis not shown) [Example 117, 6-((R)-4-((R)-1-(2-aminopyridin-3-yl)ethyl)-8-chloro-10-fluoro-2-(((S)-1-(oxetan-3-yl)pyrrolidin-2-yl)methoxy)-5,6-dihydro-4H-[1,4]oxazepino[5,6,7-de]quinazolin-9-yl)-4-methyl-5-(trifluoromethyl)pyridin-2-amine] are 6300 nM, 0.18 nM, 12 nM and 0.08 nM.
On the same counts, the results for `C[C@H](c1cccnc1N)N1CCOc2c(Cl)c(-c3nc(N)cc4ccccc34)c(F)c3nc(OC[C@@]45CCCN4C[C@H](F)C5)nc1c23` (atropisomer, axis not shown; (aS)) [Example 113a, 1-((R)-4-((R)-1-(2-aminopyridin-3-yl)ethyl)-8-chloro-10-fluoro-2-(((2R,7aS)-2-fluorotetrahydro-1H-pyrrolizin-7a(5H)-yl)methoxy)-5,6-dihydro-4H-[1,4]oxazepino[5,6,7-de]quinazolin-9-yl)isoquinolin-3-amine] are 7500 nM, 0.2 nM, 2.8 nM and 0.09 nM.
Consider `Cc1cc(N)nc(-c2c(Cl)c3c4c(nc(OC[C@@H]5CC[C@H]6COCCCN65)nc4c2F)N([C@H](C)c2cccnc2N)CCO3)c1C(F)(F)F` (atropisomer, axis not shown; (aS)) [Example 120a, 6-((R)-4-((R)-1-(2-aminopyridin-3-yl)ethyl)-8-chloro-10-fluoro-2-(((7S,9aS)-hexahydro-1H,3H-pyrrolo[2,1-c][1,4]oxazepin-7-yl)methoxy)-5,6-dihydro-4H-[1,4]oxazepino[5,6,7-de]quinazolin-9-yl)-4-methyl-5-(trifluoromethyl)pyridin-2-amine], for which the IC50 in the assay with PC-9 cells is 2500 nM; against KRas it was 0.2 nM; in the assay with SW480 cells, 28 nM; against KRas(G12V), 0.07 nM.
